Tests used:
Type in all cases: in vitro ADME
[1] = Liver microsome stability experiment (beagle dog); settings: for CLint scaled at 1 µM: beagle, dog, liver microsomes, pH 7.4, Beagle dog liver microsomes
Experimental: (§1) This experiment aimed to evaluate the phase I metabolic stability of the compounds of the present disclosure in liver microsomes of SD rats, beagle dogs, cynomolgus monkeys, and humans.
(§2) • (1) Buffer preparation: 73.21 g of dipotassium hydrogen phosphate trihydrate and 10.78 g of potassium dihydrogen phosphate were dissolved in 4000 mL of ultrapure water. The pH of the solution was adjusted to within 7.40 ± 0.10 using 10% phosphoric acid or 1 M potassium hydroxide, resulting in a final concentration of 100 mM. • (2) Solution preparation and dilution: Stock solutions of the test compounds at a concentration of 10 mM were prepared in dimethyl sulfoxide (DMSO) and stored at 4 °C, and they were diluted into 100 µM working solutions with pure acetonitrile when used. A stock solution of the control compound testosterone at a concentration of 10 mM was prepared in DMSO and stored at -20 °C, and it was diluted into a 400 µM working solution with pure acetonitrile when used. • (3) Termination solution preparation: The termination solution was an acetonitrile solution containing an internal standard (terfenadine). The prepared termination solution was stored in a refrigerator at 2-8 °C. • (4) Liver microsome solution preparation: Liver microsomes from various species (SD rat, beagle dog, cynomolgus monkey, and human) were diluted into 20× working solutions using 100 mM potassium phosphate buffer. The final concentration of the liver microsomes in the reaction system was 0.5 mg/mL. • (5) Reduced nicotinamide adenine dinucleotide phosphate (NADPH) regeneration system preparation: Appropriate amounts of nicotinamide adenine dinucleotide phosphate (NADP), glucose-6-phosphate (G6P), magnesium chloride (MgCl2), and glucose-6-phosphate dehydrogenase (G6PDH) were weighed to prepare stock solutions at concentrations of 65.33 mM, 330 mM, 300 mM, and 250 Units/mL, respectively. The four stock solutions described above were each added to an appropriate amount of buffer, and the mixture was mixed well by gently inverting up and down. The final concentrations of NADP, G6P, MgCl2, and G6PDH in the NADPH regeneration system were 2.65 mM, 10.2 mM, 6.12 mM, and 2.45 Units/mL, respectively. • (6) Incubation process: The incubation was completed in 96-well plates. Several incubation plates were prepared and named T0, T5, T10, T20, T40, T60, and NCF60, respectively. The first 6 plates corresponded to reaction time points of 0 min, 5 min, 10 min, 20 min, 40 min, and 60 min, respectively. The NCF60 plate was incubated for 60 min with potassium phosphate buffer replacing the NADPH regeneration system solution. Samples under all conditions were prepared in triplicate.
(§3) 2 µL of the test compound or control compound and 100 µL of microsome working solution (containing 1 mg/mL liver microsome protein) were added to each of the T0, T5, T10, T20, T40, T60, and NCF60 plates, and only the microsome working solution was added to the Blank 60 plate. The plates described above were then pre-incubated in a 37 °C water bath for about 10 min.
(§4) After the pre-incubation was completed, 98 µL of the NADPH regeneration system working solution was added to each sample well except for the NCF60 plate and the T0 plate to initiate the reaction, and 98 µL of potassium phosphate buffer was added to each well of the NCF60 plate. Therefore, for the sample wells containing the test sample or control substance working solution, the final concentrations of TC and testosterone in the reaction were 1 µM and 4 µM, respectively, the concentration of liver microsomes was 0.5 mg/mL, and the final concentrations of DMSO and acetonitrile in the reaction system were 0.01% (v/v) and 0.99% (v/v), respectively.
(§5) After incubation for an appropriate time (e.g., 5 min, 10 min, 20 min, 40 min, and 60 min), 600 µL of a termination solution (an acetonitrile solution containing 100 ng/mL […]) was added to each test compound sample well and control compound sample well to terminate the reaction. […]

[2] = Liver microsome stability experiment (cynomolgus monkey); settings: pH 7.4, Cynomolgus monkey liver microsomes, 0.5 mg/mL; for CLint scaled at 1 µM: cynomolgus monkey, liver microsomes
Experimental: as §1, §2, §3, §4, §5

[3] = Liver microsome stability experiment (human); settings: for CLint scaled at 1 µM: human, liver microsomes, pH 7.4, Human liver microsomes
Experimental: as §1, §2, §3, §4, §5

[4] = Liver microsome stability experiment (SD rat); settings: for CLint scaled at 1 µM: SD, rat, liver microsomes, pH 7.4, SD rat liver microsomes
Experimental: as §1, §2, §3, §4, §5

[5] = 0.5 mg/mL, 1 µM, read-out: CL(liver)
[6] = 0.5 mg/mL, 1 µM, read-out: CLint(liver)
[7] = read-out: Clearance rate classification

## COCCN1CCC(N(Cc2ccc(-c3ccc(C(F)(F)F)cc3)cc2)C(=O)Cn2c(SCc3cccc(F)c3F)cc(=O)c3ccccc32)CC1 [Rilapladib]
[1]; [5]
  CLint scaled at 1 µM: 8.8 mL/min/kg
[1]; [6]
  CLint scaled at 1 µM: 12.4 mL/min/kg
[1]; [7]
  CLint scaled at 1 µM: ≤ 13.2 mL/min/kg
[1]; pH 7.4, Beagle dog liver microsomes, 0.5 mg/mL, 1 µM
  half-life at 1 µM: 162 min
[2]; read-out: CL(liver)
  CLint scaled at 1 µM: 39.8 mL/min/kg
[2]; read-out: CLint(liver)
  CLint scaled at 1 µM: 461 mL/min/kg
[2]
  half-life at 1 µM: 4.06 min
[3]; [5]
  CLint scaled at 1 µM: 15.4 mL/min/kg
[3]; [6]
  CLint scaled at 1 µM: 60.3 mL/min/kg
[3]; [7]
  CLint scaled at 1 µM: > 48.3 mL/min/kg
[3]; pH 7.4, Human liver microsomes, 0.5 mg/mL, 1 µM
  half-life at 1 µM: 20.7 min
[4]; [5]
  CLint scaled at 1 µM: < 10.8 mL/min/kg
[4]; [6]
  CLint scaled at 1 µM: < 13.4 mL/min/kg
[4]; [7]
  CLint scaled at 1 µM: ≤ 23.7 mL/min/kg
[4]; pH 7.4, SD rat liver microsomes, 0.5 mg/mL, 1 µM
  half-life at 1 µM: > 186 min

Source: patent publication EP4748841A1, “BICYCLO[5,6] IMIDAZOLE PYRIMIDONE DERIVATIVE AND PREPARATION METHOD THEREFOR AND USE THEREOF” (Shujing Biopharma Co., Ltd, priority 2023, dated 2025)
